Usually pIC50 stands for the IC50 on a negative log10 scale, so that one unit is a factor of ten. Lower therefore signals a large IC50.

The structures appear in SMILES notation. pIC50: −log10 of the molar value.

For one experiment, the system named is NCI-H460. In words: Antiproliferative activity against H460 cells after 72 hrs by MTT assay. It counts as functional, cell-based. Particulars: Homo sapiens, NCI-H460, 72 h.
The subject of another experiment is SW-620. The experiment can be described thus: Antiproliferative activity against SW620 cells after 72 hrs by MTT assay. It counts as functional, cell-based. The following applies: Homo sapiens, SW-620, 72 h.
In the next experiment the test system is MCF7. In words: Antiproliferative activity against MCF7 cells after 72 hrs by MTT assay. The following applies: Homo sapiens, MCF7, 72 h. It counts as functional, cell-based.
Experiment [1] relates to MIA PaCa-2. In words: Antiproliferative activity against MiaPaCa2 cells after 72 hrs by MTT assay. The format is functional, cell-based. Particulars: Homo sapiens, MIA PaCa-2, 72 h. (Tetrazolium assays rely on reduction of a dye to a coloured formazan, in cell work by metabolically active cells.)
The next experiment has as its system HeLa. In words: Antiproliferative activity against HeLa cells after 72 hrs by MTT assay. Particulars: Homo sapiens. It counts as functional, cell-based.
In experiment [2] the test system is MIA PaCa-2. In words: Cell cycle arrest in MiaPaCa2 cells by accumulation at G1/G0 phase at 10 nM after 48 hrs. It counts as functional, Homo sapiens.
In experiment [3] the test system is MIA PaCa-2. In words: Cell cycle arrest in MiaPaCa2 cells by accumulation at SubG1 phase at 10 nM after 48 hrs. It counts as functional, Homo sapiens.
Experiment [4] concerns MIA PaCa-2. The experiment can be described thus: Cell cycle arrest in MiaPaCa2 cells by accumulation at SubG1 phase at 10 nM after 36 hrs. It counts as functional, Homo sapiens.
Experiment [5] deals with MIA PaCa-2. The experiment can be described thus: Cell cycle arrest in MiaPaCa2 cells by accumulation at SubG1 phase at 10 nM after 24 hrs. It counts as functional, Homo sapiens.
Experiment [6] deals with MIA PaCa-2. In words: Cell cycle arrest at MiaPaCa2 cells by accumulation at S phase at 10 nM after 24 hrs. It counts as functional, Homo sapiens.
Experiment [7] concerns MIA PaCa-2. In words: Cell cycle arrest at MiaPaCa2 cells by accumulation at S phase at 10 nM after 48 hrs. It counts as functional, Homo sapiens.
Experiment [8] relates to MIA PaCa-2. The experiment can be described thus: Cell cycle arrest at MiaPaCa2 cells by accumulation at S phase at 10 nM after 36 hrs. The format is functional, Homo sapiens.
The test system of experiment [9] is MIA PaCa-2. In words: Cell cycle arrest at MiaPaCa2 cells by accumulation at G2/M phase at 10 nM after 48 hrs. It counts as functional, Homo sapiens.
Experiment [10] concerns MIA PaCa-2. The experiment can be described thus: Cell cycle arrest at MiaPaCa2 cells by accumulation at G2/M phase at 10 nM after 36 hrs. It counts as functional, Homo sapiens.
The test system of experiment [11] is MIA PaCa-2. The experiment can be described thus: Cell cycle arrest at MiaPaCa2 cells by accumulation at G2/M phase at 10 nM after 24 hrs. The format is functional, Homo sapiens.
Experiment [12] deals with MIA PaCa-2. In words: Cell cycle arrest in MiaPaCa2 cells by accumulation at G1/G0 phase at 10 nM after 36 hrs. The format is functional, Homo sapiens.
Experiment [13] relates to MIA PaCa-2. In words: Cell cycle arrest in MiaPaCa2 cells by accumulation at G1/G0 phase at 10 nM after 24 hrs. The format is functional, Homo sapiens.
Experiment [14] has as its system MIA PaCa-2. The experiment can be described thus: Cell cycle arrest in MiaPaCa2 cells by accumulation at G1 phase at 10 nM. It counts as functional, cell-based. The following applies: Homo sapiens, TDE = time-dependent effect.

Turning to `c1ccc2c(c1)OCCOCCOCCOCCOc1ccccc1OCCOCCOCCOCCO2`, the negative-log IC50 (pIC50) with NCI-H460 is 5.05; in the experiment with SW-620, 4.77; with MCF7, 4.52; in the experiment with MIA PaCa-2 [1] it was 5.15; in the experiment with HeLa, 4.96.

For `c1ccc(CN2CCOCCOCCOCCOCC2)cc1`, the negative logarithm of the IC50 (pIC50) in the experiment on NCI-H460, with SW-620, with MCF7, with MIA PaCa-2 [1] and with HeLa was < 4.00 in each case.

For `COC(=O)[C@H](NC(=O)CN1CCOCCOCCN(CC(=O)N[C@@H](C(=O)OC)c2ccccc2)CCOCCOCC1)c1ccccc1`, the pIC50 is < 4.00 in the experiment on NCI-H460; ≤ 4.00 in the experiment with SW-620; < 4.00 with MCF7; < 4.00 in the experiment on MIA PaCa-2 [1]; < 4.00 in the experiment with HeLa.

Regarding `CC(C)[C@@H]1NC(=O)[C@H](C)OC(=O)[C@@H](C(C)C)NC(=O)[C@@H](C(C)C)OC(=O)[C@H](C(C)C)NC(=O)[C@H](C)OC(=O)[C@@H](C(C)C)NC(=O)[C@@H](C(C)C)OC(=O)[C@H](C(C)C)NC(=O)[C@H](C)OC(=O)[C@@H](C(C)C)NC(=O)[C@@H](C(C)C)OC1=O` [VALINOMYCIN], the Activity with MIA PaCa-2 [2] was found to be 62%; with MIA PaCa-2 [3], 49%; with MIA PaCa-2 [4] it was 42%; with MIA PaCa-2 [5], 35%; with MIA PaCa-2 [6], 24%; in the experiment with MIA PaCa-2 [7] it was 19%. Moreover, the Activity in the experiment with MIA PaCa-2 [8] is 12%; in the experiment with MIA PaCa-2 [9], 18%; in the experiment on MIA PaCa-2 [10], 23%; in the experiment with MIA PaCa-2 [11], 24%; with MIA PaCa-2 [12], 63%; in the experiment with MIA PaCa-2 [13], 60%. Moreover, the Activity entry in the experiment on MIA PaCa-2 [14] is “tde”. Further, the pIC50 was 9.00 with NCI-H460; 10.00 in the experiment on SW-620; 6.30 in the experiment on MCF7; 9.00 in the experiment with MIA PaCa-2 [1]; 9.00 in the experiment on HeLa.

With `CC(C)(C)c1ccc(O)c(O)c1`, the pIC50 was 4.66 in the experiment with NCI-H460; 4.66 in the experiment on SW-620; 4.64 with MCF7; 4.70 in the experiment on MIA PaCa-2 [1]; 4.62 in the experiment with HeLa.

For the molecule `c1ccc(CN2CCOCCOCCN(Cc3ccccc3)CCOCCOCC2)cc1`, the pIC50 with NCI-H460 was 4.60; with SW-620 it was 5.22; in the experiment with MCF7, 4.60; with MIA PaCa-2 [1] it was 4.64; with HeLa, 4.85.

Take `O=C(NCC(=O)N1CCOCCOCCN(C(=O)CNC(=O)OCc2ccccc2)CCOCCOCC1)OCc1ccccc1`: the pIC50 in the experiment on NCI-H460 is < 4.00; with SW-620 it was 4.40; in the experiment with MCF7 it was 4.36; with MIA PaCa-2 [1], 4.15; with HeLa, 4.43.

Regarding `c1ccc(CNCCOCCOCCNCc2ccccc2)cc1`, the pIC50 in the experiment with NCI-H460 is 4.51; with SW-620 it was 4.41; with MCF7, < 4.00; with MIA PaCa-2 [1] it was < 4.00; with HeLa it was 4.62.

With `CC(C)(C)c1cc(O)c(OCCOCCOc2c(O)cc(C(C)(C)C)cc2C(C)(C)C)c(C(C)(C)C)c1`, the pIC50 in the experiment on NCI-H460 is 5.10; with SW-620 it was 4.72; in the experiment on MCF7 it was 4.54; in the experiment with MIA PaCa-2 [1] it was 4.74; in the experiment with HeLa, 4.96.

Turning to `c1ccc2c(c1)OCCOCCOc1ccccc1OCCOCCO2`, the pIC50 is 4.55 in the experiment on NCI-H460; 4.77 in the experiment on SW-620; 4.31 in the experiment on MCF7; 4.55 in the experiment with MIA PaCa-2 [1]; 4.77 with HeLa.

`c1ccc2c(c1)OCCOCCOCCOc1ccccc1OCCOCCOCCO2`: the pIC50 with NCI-H460 was 4.62; in the experiment with SW-620, 4.14; with MCF7 it was < 4.00; in the experiment with MIA PaCa-2 [1], 4.49; in the experiment on HeLa, 4.68.

Regarding `OCCN(CCO)Cc1ccccc1`, the negative logarithm of the IC50 (pIC50) with NCI-H460, with SW-620, in the experiment on MCF7, in the experiment on MIA PaCa-2 [1] and in the experiment with HeLa was < 4.00 each time.

In the case of `C1CCC2OCCOCCOC3CCCCC3OCCOCCOC2C1` (stereo not drawn) [ICOSAHYDRODIBENZO[B,K][1,4,7,10,13,16]HEXAOXACYCLOOCTADECINE], the pIC50 with NCI-H460 was 4.80; with SW-620 it was 5.15; in the experiment on MCF7, 4.44; in the experiment on MIA PaCa-2 [1], 4.80; with HeLa, 4.60.

`CC(C)(C)c1cc2c(c(C(C)(C)C)c1)OCCOCCOc1c(cc(C(C)(C)C)cc1C(C)(C)C)OCCOCCO2`: the pIC50 is 4.72 in the experiment with NCI-H460; 4.72 in the experiment with SW-620; 5.10 with MCF7; 4.82 with MIA PaCa-2 [1]; 5.00 in the experiment on HeLa.

The record behind these values is ChEMBL document CHEMBL1142870, “Antitumor potential of crown ethers: structure-activity relationships, cell cycle disturbances, and cell death studies of a series of ionophores” (J Med Chem, 2007).
